Counter-ions that a name gives are not always drawn.
Legend:
[1] = biological target: T1, NLRP3 (Homo sapiens, UniProt Q96P20); assay: Human whole blood IL1β release assay (LPS + nigericin, AlphaLisa IL-1β); assay type: cell-based; parameters: Human whole blood in Li-heparin tubes was obtained from healthy donors from a volunteer donor panel; from tissue; host or cells: human whole blood from healthy donors; conditions: NLRP3 inhibitory activity, 1 μg/ml LPS, 10 μM nigericin, IL-1β release, read-out: HWB IC50
T1 sequence (Q96P20 whole entry): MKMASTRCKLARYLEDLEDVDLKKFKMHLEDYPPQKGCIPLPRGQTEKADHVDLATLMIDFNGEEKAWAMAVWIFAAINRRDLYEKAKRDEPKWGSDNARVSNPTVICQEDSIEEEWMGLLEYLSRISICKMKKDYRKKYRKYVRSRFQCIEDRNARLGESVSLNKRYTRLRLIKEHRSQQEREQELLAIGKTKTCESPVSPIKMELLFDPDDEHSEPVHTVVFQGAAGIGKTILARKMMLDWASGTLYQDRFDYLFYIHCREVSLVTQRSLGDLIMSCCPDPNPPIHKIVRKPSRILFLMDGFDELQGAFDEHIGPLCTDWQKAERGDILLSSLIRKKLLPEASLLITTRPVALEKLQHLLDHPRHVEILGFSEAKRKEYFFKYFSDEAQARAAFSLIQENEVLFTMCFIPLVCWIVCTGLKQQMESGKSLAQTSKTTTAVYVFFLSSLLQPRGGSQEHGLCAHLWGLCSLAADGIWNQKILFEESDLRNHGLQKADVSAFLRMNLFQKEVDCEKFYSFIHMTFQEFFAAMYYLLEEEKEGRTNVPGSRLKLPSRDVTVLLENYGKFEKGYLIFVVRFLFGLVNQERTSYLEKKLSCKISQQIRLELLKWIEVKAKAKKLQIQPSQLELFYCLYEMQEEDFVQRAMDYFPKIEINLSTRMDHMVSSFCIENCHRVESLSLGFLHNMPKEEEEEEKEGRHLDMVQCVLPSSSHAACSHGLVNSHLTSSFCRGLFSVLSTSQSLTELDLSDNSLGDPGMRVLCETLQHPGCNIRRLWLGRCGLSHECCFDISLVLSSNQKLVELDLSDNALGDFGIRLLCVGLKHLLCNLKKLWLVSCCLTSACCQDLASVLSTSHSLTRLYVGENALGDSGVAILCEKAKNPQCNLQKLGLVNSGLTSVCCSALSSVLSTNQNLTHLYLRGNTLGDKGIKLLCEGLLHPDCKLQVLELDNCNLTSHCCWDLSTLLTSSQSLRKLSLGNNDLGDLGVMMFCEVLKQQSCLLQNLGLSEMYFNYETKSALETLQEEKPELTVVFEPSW
Summary of the method: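 Donor human whole blood (Li-heparin) was primed with 1 μg/mL LPS while incubated with compound (8-point half-log, 10 μM top, 0.1% DMSO) for 3 h at 37° C., then stimulated with 10 μM nigericin for 1 h. Supernatant IL-1β measured by AlphaLISA; IC50 from 4-parameter nonlinear fit.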

[2] = biological target: T1, NLRP3; assay: THP-1 cells pyroptosis assay (LPS + nigericin, resazurin readout); assay type: cell-based; parameters: Seed THP-1 cells (25,000 cells/well) containing 1.0 μg/ml LPS in 40 μl of RPMI medium; host or cells: THP-1 cells; conditions: NLRP3 inhibitory activity, 1.0 μg/ml LPS, 5 μM nigericin
Summary of the method: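 LPS-primed (1 μg/ml) THP-1 cells, 25,000/well in serum-free RPMI, given compound (8-point half-log, 10 μM top; 0.1% DMSO) for 3 h at 37 °C, then nigericin 5 μM for 1 h. Viability by resazurin (100 μM, 1-2 h), Ex 560/Em 590 nm; IC50 from 4-parameter variable-slope fit.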

Structure (SMILES)	IC50 [1] [nM]	IC50 [2] [nM]
CCn1nc(S(=O)(=O)NC(=O)Nc2c(-c3ccnc(OC)c3)ccc3c2CCC3)cc1CN(C)C [Example 17, 5-((Dimethylamino)methyl)-1-ethyl-N-((5-(2-methoxypyridin-4-yl)-2,3-dihydro-1H-inden-4-yl)carbamoyl)-1H-pyrazole-3-sulfonamide]	< 400	< 40
Cn1nc(S(=O)(=O)NC(=O)Nc2c3c(cc4c2CCC4)CCC3)cc1CN1CCCC1 [Example 78, N-((1,2,3,5,6,7-Hexahydro-s-indacen-4-yl)carbamoyl)-1-methyl-5-(pyrrolidin-1-ylmethyl)-1H-pyrazole-3-sulfonamide, Sodium Salt]	400 to 800	40 to 160
CN(C)CCc1cc(S(=O)(=O)NC(=O)Nc2c3c(cc4c2CCC4)CCC3)nn1C [Example 59, 5-(2-(Dimethylamino)ethyl)-N-((1,2,3,5,6,7-hexahydro-s-indacen-4-yl)carbamoyl)-1-methyl-1H-pyrazole-3-sulfonamide]	800 to 1600	160 to 640
CN(C)C1(c2cc(S(=O)(=O)NC(=O)Nc3c4c(cc5c3CCC5)CCC4)nn2C)COC1 [Example 115, 5-(3-(Dimethylamino)oxetan-3-yl)-N-((1,2,3,5,6,7-hexahydro-s-indacen-4-yl)carbamoyl)-1-methyl-1H-pyrazole-3-sulfonamide]	800 to 1600	160 to 640
CC(C)c1cc(F)cc(C2CCOCC2)c1NC(=O)NS(=O)(=O)c1cc(C(=O)N(C)C)n(C)n1 [Example 126, 3-(N-((4-Fluoro-2-isopropyl-6-(tetrahydro-2H-pyran-4-yl)phenyl)carbamoyl)sulfamoyl)-N,N,1-trimethyl-1H-pyrazole-5-carboxamide, Sodium Salt]	400 to 800	640 to 2560
CCC(c1cc(S(=O)(=O)NC(=O)Nc2c(C(C)C)cc(F)cc2C(C)C)nn1C(C)C)N(C)C (centres unmarked) [Example 62, 5-(1-(Dimethylamino)propyl)-N-((4-fluoro-2,6-diisopropylphenyl)carbamoyl)-1-isopropyl-1H-pyrazole-3-sulfonamide]	400 to 800	160 to 640
CC(C)(C)n1nc(S(=O)(=O)NC(=O)Nc2c3c(cc4c2CCC4)CCC3)cc1CN1CCC1 [Example 38, 5-(Azetidin-1-ylmethyl)-1-(tert-butyl)-N-((1,2,3,5,6,7-hexahydro-s-indacen-4-yl)carbamoyl)-1H-pyrazole-3-sulfonamide]	1600 to 3200	40 to 160
COCCN(CCOC)C(=O)c1cc(S(=O)(=O)NC(=O)Nc2c(-c3ccnc(OC)c3)ccc3c2CCC3)nn1C [Example 175, N,N-Bis(2-methoxyethyl)-3-(N-((5-(2-methoxypyridin-4-yl)-2,3-dihydro-1H-inden-4-yl)carbamoyl)sulfamoyl)-1-methyl-1H-pyrazole-5-carboxamide, Sodium Salt]	< 400	160 to 640
CCn1nc(S(=O)(=O)NC(=O)Nc2c(-c3ccnc(OC)c3)cc(F)c3c2CCC3)cc1CN(C)C [Example 21, 5-((Dimethylamino)methyl)-1-ethyl-N-((7-fluoro-5-(2-methoxypyridin-4-yl)-2,3-dihydro-1H-inden-4-yl)carbamoyl)-1H-pyrazole-3-sulfonamide]	< 400	< 40
CC(C)c1cc(F)cc(-c2cccnc2)c1NC(=O)NS(=O)(=O)c1cc(CN(C)C)n(C(C)C)n1 [Example 54, 5-((Dimethylamino)methyl)-N-((4-fluoro-2-isopropyl-6-(pyridin-3-yl)phenyl)carbamoyl)-1-isopropyl-1H-pyrazole-3-sulfonamide]	400 to 800	160 to 640
CC(C)c1cc(F)cc(-c2cccnc2)c1NC(=O)NS(=O)(=O)c1cc(CN(C)C)n(C)n1 [Example 41, 5-((Dimethylamino)methyl)-N-((4-fluoro-2-isopropyl-6-(pyridin-3-yl)phenyl)carbamoyl)-1-methyl-1H-pyrazole-3-sulfonamide]	< 400	40 to 160
CC(C)c1cc(F)cc(C(C)C)c1NC(=O)NS(=O)(=O)c1cc(CN(C)C(C)C)n(C)n1 [Example 90, N-((4-Fluoro-2,6-diisopropylphenyl)carbamoyl)-5-((isopropyl(methyl)amino)methyl)-1-methyl-1H-pyrazole-3-sulfonamide, sodium Salt]	< 400	160 to 640
CCC(c1cc(S(=O)(=O)NC(=O)Nc2c(-c3ccnc(OC)c3)ccc3c2CCC3)nn1C(C)C)N(C)C (centres unmarked) [Example 180]	< 400	40 to 160
COc1cc(-c2ccc3c(c2NC(=O)NS(=O)(=O)c2cc(C4CCCN4C)n(C(C)C)n2)CCC3)ccn1 (centres unmarked) [Example 179]	800 to 1600	40 to 160
CCN(CC)Cc1cc(S(=O)(=O)NC(=O)Nc2c(C(C)C)cc(F)cc2C(C)C)nn1C [Example 83, 5-((Diethylamino)methyl)-N-((4-fluoro-2,6-diisopropylphenyl)carbamoyl)-1-methyl-1H-pyrazole-3-sulfonamide, sodium Salt]	400 to 800	640 to 2560
CC(C)c1cc(F)cc(-c2cccc(C#N)c2)c1NC(=O)NS(=O)(=O)c1cc(CN(C)C)n(C(C)C)n1 [Example 45, N-((3′-Cyano-5-fluoro-3-isopropyl-[1,1′-biphenyl]-2-yl)carbamoyl)-5-((dimethylamino)methyl)-1-isopropyl-1H-pyrazole-3-sulfonamide]	800 to 1600	160 to 640
CCn1nc(S(=O)(=O)NC(=O)Nc2c3c(cc4c2CCO4)CCC3)cc1CN(C)C [Example 184]	400 to 800	< 40
CNCc1cc(S(=O)(=O)NC(=O)Nc2c3c(cc4c2CCC4)CCC3)nn1C [Example 67, N-((1,2,3,5,6,7-Hexahydro-s-indacen-4-yl)carbamoyl)-1-methyl-5-((methylamino)methyl)-1H-pyrazole-3-sulfonamide]	400 to 800	40 to 160
CCC(c1cc(S(=O)(=O)NC(=O)Nc2c(C(C)C)cc(Cl)cc2C(C)C)nn1C)N(C)C (centres unmarked) [Example 64, N-((4-Chloro-2,6-diisopropylphenyl)carbamoyl)-5-(1-(dimethylamino)propyl)-1-methyl-1H-pyrazole-3-sulfonamide]	800 to 1600	< 40
COCCN(C)Cc1cc(S(=O)(=O)NC(=O)Nc2c3c(cc4c2CCC4)CCC3)nn1C [Example 119, N-((1,2,3,5,6,7-Hexahydro-s-indacen-4-yl)carbamoyl)-5-(((2-methoxyethyl)(methyl)amino)methyl)-1-methyl-1H-pyrazole-3-sulfonamide, Sodium Salt]	1600 to 3200	160 to 640
CC(C)c1cc(F)cc(C(C)C)c1NC(=O)NS(=O)(=O)c1cc(CN2CC(F)C2)n(C)n1 [Example 79, N-((4-Fluoro-2,6-diisopropylphenyl)carbamoyl)-5-((3-fluoroazetidin-1-yl)methyl)-1-methyl-1H-pyrazole-3-sulfonamide]	800 to 1600	640 to 2560
COc1cc(-c2ccc3c(c2NC(=O)NS(=O)(=O)c2cc(C(=O)N(C)C)n(C)n2)CCC3)ccn1 [Example 177, 3-(N-((5-(2-Methoxypyridin-4-yl)-2,3-dihydro-1H-inden-4-yl)carbamoyl)sulfamoyl)-N,N,1-trimethyl-1H-pyrazole-5-carboxamide, sodium Salt]	< 400	< 40
CC(C)n1nc(S(=O)(=O)NC(=O)Nc2c3c(cc4c2CCC4)CCC3)cc1CN1CCC1 [Example 53, 5-(Azetidin-1-ylmethyl)-N-((1,2,3,5,6,7-hexahydro-s-indacen-4-yl)carbamoyl)-1-isopropyl-1H-pyrazole-3-sulfonamide]	400 to 800	< 40
CC(C)n1nc(S(=O)(=O)NC(=O)Nc2c3c(cc4c2CCC4)CCC3)cc1CN(C)CC(F)(F)F [Example 96, N-((1,2,3,5,6,7-Hexahydro-s-indacen-4-yl)carbamoyl)-1-isopropyl-5-((methyl(2,2,2-trifluoroethyl)amino)methyl)-1H-pyrazole-3-sulfonamide]	3200 to 10000	40 to 160
CNCc1cc(S(=O)(=O)NC(=O)Nc2c3c(cc4c2CCC4)CCC3)nn1C1CC1 [Example 183]	400 to 800	40 to 160
CN1CCn2nc(S(=O)(=O)NC(=O)Nc3c4c(cc5c3CCC5)CCC4)cc2C1 [Example 5, N-((1,2,3,5,6,7-Hexahydro-s-indacen-4-yl)carbamoyl)-5-methyl-4,5,6,7-tetrahydropyrazolo[1,5-a]pyrazine-2-sulfonamide]	1600 to 3200	160 to 640
CC(C)Oc1cc(-c2cc(F)cc(C(C)C)c2NC(=O)NS(=O)(=O)c2cc(C(=O)N(C)C)n(C)n2)ccn1 [Example 176, 3-(N-((4-Fluoro-2-(2-isopropoxypyridin-4-yl)-6-isopropyl-phenyl)carbamoyl)sulfamoyl)-N,N,1-trimethyl-1H-pyrazole-5-carboxamide, sodium salt]	1600 to 3200	160 to 640
CC(C)n1nc(S(=O)(=O)NC(=O)Nc2c3c(cc4c2CCC4)CCC3)cc1CCN(C)C [Example 33, 5-(2-(Dimethylamino)ethyl)-N-((1,2,3,5,6,7-hexahydro-s-indacen-4-yl)carbamoyl)-1-isopropyl-1H-pyrazole-3-sulfonamide, Sodium Salt]	400 to 800	160 to 640

— patent US11542255B2, “Sulfonylureas and sulfonylthioureas as NLRP3 inhibitors” (Inflazome Limited, priority 2017, dated 2023)
